Data reported in patent US11000530B2, “Methods and compositions for the treatment of ophthalmic conditions” (Murray & Poole Enterprises, Limited, priority 2017, dated 2021).

How the values were obtained:
[1] = exposure to oxygen: oxygenation of diclofenac, degradation of ofloxacin into ofloxacin-N-oxide; cited from earlier work
[2] = Sedimentation in liquid solutions; format: physicochemical; details: micronized, particulate form

time to sedimentation in liquid solutions [2]	Structure (SMILES)	compatibility of diclofenac and ofloxacin [1]
–	O=C(O)Cc1ccccc1Nc1c(Cl)cccc1Cl [Diclofenac]	generally incompatible
less than one minute	CC(=O)OCC(=O)[C@@]1(O)CC[C@H]2[C@@H]3CCC4=CC(=O)C=C[C@]4(C)[C@H]3[C@@H](O)C[C@@]21C [Prednisolone acetate]	–
